Activity calls are given as the source filed them. How the calls were made is not given here.
Biological target: Intestinal-type alkaline phosphatase (Homo sapiens) (UniProt P09923)
Test: human IAP activators, SAR follow-up, mouse IAP activator project, biochemical, human enzyme for mouse series (AID 493145)
Conditions: purified human intestinal alkaline phosphatase, enzymatic activity

Sequence of Intestinal-type alkaline phosphatase (Homo sapiens) (P09923 whole entry, looked up): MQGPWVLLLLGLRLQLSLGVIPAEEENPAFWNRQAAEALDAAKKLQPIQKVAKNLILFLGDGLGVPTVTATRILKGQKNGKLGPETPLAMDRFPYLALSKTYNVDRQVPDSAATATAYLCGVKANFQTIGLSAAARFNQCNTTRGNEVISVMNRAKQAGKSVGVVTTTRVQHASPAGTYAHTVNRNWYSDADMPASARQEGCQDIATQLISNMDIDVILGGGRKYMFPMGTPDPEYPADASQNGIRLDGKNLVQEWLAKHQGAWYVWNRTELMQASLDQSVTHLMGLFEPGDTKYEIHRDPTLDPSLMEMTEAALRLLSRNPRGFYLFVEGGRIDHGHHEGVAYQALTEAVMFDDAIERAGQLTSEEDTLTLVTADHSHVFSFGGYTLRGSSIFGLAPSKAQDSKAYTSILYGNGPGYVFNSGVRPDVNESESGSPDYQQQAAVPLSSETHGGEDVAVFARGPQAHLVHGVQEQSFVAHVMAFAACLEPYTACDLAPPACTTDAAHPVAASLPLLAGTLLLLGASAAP

Row | EC50 | Compound
1 | > 100 µM (inactive) | Cc1ccc(NC(=O)CSc2sc3c(O)cc(=O)[nH]c3c2C#N)c(F)c1
2 | > 100 µM (inactive) | Cc1ccc(C)c(NC(=O)CCNS(=O)(=O)c2ccc3[nH]c(=O)oc3c2)c1
3 | > 100 µM (inactive) | Cc1ccc(Cl)cc1NC(=O)CSc1sc2c(O)cc(=O)[nH]c2c1C#N
4 | > 100 µM (inactive) | CC(C)c1ccc(NC(=O)CCNS(=O)(=O)c2ccc3[nH]c(=O)oc3c2)cc1
5 | > 100 µM (inactive) | CCOc1ccc2nc(NC(=O)CN(C)S(=O)(=O)c3ccc4[nH]c(=O)oc4c3)sc2c1
6 | > 100 µM (inactive) | CCc1ccc(NC(=O)CN(C)S(=O)(=O)c2ccc3[nH]c(=O)oc3c2)cc1
7 | > 100 µM (inactive) | N#Cc1c(SCC(=O)Nc2ccc(C(F)(F)F)cc2)sc2c(O)cc(=O)[nH]c12
8 | > 100 µM (inactive) | CCOC(=O)N1CCN(S(=O)(=O)c2ccc3[nH]c(=O)oc3c2)CC1
9 | > 100 µM (inactive) | COc1ccc(Cl)cc1NC(=O)CSc1sc2c(O)cc(=O)[nH]c2c1C#N

Further lines, the compound ahead of its results:

Row | Compound | EC50
10 | CCc1nnc(NC(=O)CSc2sc3c(O)cc(=O)[nH]c3c2C#N)s1 | > 100 µM (inactive)
11 | O=C(N/N=C/c1ccccc1F)c1cc(O)c(O)c(O)c1 | > 100 µM (inactive)
12 | O=C(CN1C(=O)/C(=C/c2ccco2)SC1=S)NCCc1ccc(O)cc1 | > 100 µM (inactive)
13 | N#Cc1c(SCC(=O)Nc2nc3ccc(Br)cc3s2)sc2c(O)cc(=O)[nH]c12 | > 100 µM (inactive)
14 | CCCSc1nnc(NC(=O)CSc2sc3c(O)cc(=O)[nH]c3c2C#N)s1 | > 100 µM (inactive)
15 | O=C(CN1C(=O)/C(=C/c2ccco2)SC1=S)NC1CCS(=O)(=O)C1 (centres undefined) | 30.6 µM
16 | O=C(N/N=C/c1ccc(F)cc1)c1cc(O)c(O)c(O)c1 | > 100 µM (inactive)
17 | O=S(=O)(Nc1ncccn1)c1ccc(NC(=S)NCCC(c2ccccc2)c2ccccc2)cc1 | > 100 µM (inactive)
18 | CN(C(=O)CN1C(=O)/C(=C\c2ccco2)SC1=S)C1CCS(=O)(=O)C1 (centres undefined) | > 100 µM (inactive)
19 | COc1ccc(NC(=S)NCCC(c2ccccc2)c2ccccc2)cc1 | 52.3 µM
20 | COc1cc(C(=O)NNC(=O)c2n[nH]c3ccccc23)cc(OC)c1OC | 24 µM
21 | N#Cc1cccc(NC(=O)CSc2sc3c(O)cc(=O)[nH]c3c2C#N)c1 | > 100 µM (inactive)
22 | FC(F)(F)c1cccc(NC(=S)NCCC(c2ccccc2)c2ccccc2)c1 | 66.4 µM
23 | O=C(CN1C(=O)/C(=C\c2ccco2)SC1=S)Nc1ccccc1C(=O)O | > 100 µM (inactive)
24 | CC(C(=O)N(C)C1CCS(=O)(=O)C1)N1C(=O)/C(=C/c2ccco2)SC1=S (centres undefined) | > 100 µM (inactive)

Reference: PubChem BioAssay AID493145 (Sanford-Burnham Center for Chemical Genomics, 2011)
